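Interpolation was linear, between the two tested concentrations surrounding the appropriate level; five concentrations were tested over 48 hours in 96-well plates. GI50 = concentration required for 50% inhibition of growth.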 Active and inactive are the calls of the source. Rule as the data show it: active = GI50 up to about 1.1 µM and inactive = higher.
Experiments:
Experiment in all cases: inhibition of tumour cell growth, NCI panel, 48 h
[1] = test system: HCT-116
[2] = test system: RXF 393
[3] = test system: TK-10
[4] = test system: M14
[5] = test system: HCT-15
[6] = test system: UACC-62
[7] = test system: U-251
[8] = test system: A549
[9] = test system: BT-549
[10] = test system: UACC-257
[11] = test system: Malme-3M
[12] = test system: SK-MEL-5
[13] = test system: DU-145
[14] = test system: ACHN
[15] = test system: T47D
[16] = test system: SK-OV-3
[17] = test system: SNB-75
[18] = test system: OVCAR-8
[19] = test system: 786-0
[20] = test system: NCI-H226
[21] = test system: MDA-N
[22] = test system: MDA-MB-231
[23] = test system: IGROV-1
[24] = test system: SF-539
[25] = test system: CAKI-1
[26] = test system: UO-31
[27] = test system: MOLT-4
[28] = test system: SK-MEL-2
[29] = test system: PC-3
[30] = test system: OVCAR-3
[31] = test system: NCI-H23
[32] = test system: OVCAR-5
[33] = test system: SW-620
[34] = test system: K562
[35] = test system: MDA-MB-435
[36] = test system: NCI-H460
[37] = test system: COLO 205
[38] = test system: A498
[39] = test system: EKVX
[40] = test system: SF-295
[41] = test system: Hs-578T
[42] = test system: NCI-H522
[43] = test system: SF-268
[44] = test system: HOP-92
[45] = test system: KM12
[46] = test system: SK-MEL-28
[47] = test system: HOP-62
[48] = test system: MCF7
[49] = test system: SN12C
[50] = test system: HT-29
[51] = test system: HCC 2998
[52] = test system: SR
[53] = test system: OVCAR-4
[54] = test system: RPMI-8226
[55] = test system: SNB-19
[56] = test system: NCI/ADR-RES
[57] = test system: CCRF-CEM
[58] = test system: LOX IMVI
[59] = test system: HL-60

## O=C1c2ccccc2C(=O)c2c(NC(=O)c3ccc4c5c(ncnc35)-c3ccccc3C4=O)cccc21
[1]
  GI50: > 100 µM (inactive)
[2]
  GI50: 22.6 µM (inactive)
[3]
  GI50: 21.8 µM (inactive)
[4]
  GI50: > 100 µM (inactive)
[5]
  GI50: > 100 µM
[6]
  GI50: > 100 µM (inactive)
[7]
  GI50: 31 µM (inactive)
[8]
  GI50: > 100 µM (inactive)
[9]
  GI50: 48 µM (inactive)
[10]
  GI50: > 100 µM (inactive)
[11]
  GI50: > 100 µM (inactive)
[12]
  GI50: > 100 µM (inactive)
[13]
  GI50: > 100 µM (inactive)
[14]
  GI50: > 100 µM (inactive)
[15]
  GI50: > 100 µM (inactive)
[16]
  GI50: 23.2 µM (inactive)
[17]
  GI50: 18.7 µM (inactive)
[18]
  GI50: > 100 µM (inactive)
[19]
  GI50: 25.1 µM (inactive)
[20]
  GI50: > 100 µM (inactive)
[21]
  GI50: > 100 µM (inactive)
[22]
  GI50: 32.4 µM (inactive)
[23]
  GI50: > 100 µM (inactive)
[24]
  GI50: 52.4 µM (inactive)
[25]
  GI50: > 100 µM (inactive)
[26]
  GI50: > 100 µM (inactive)
[27]
  GI50: > 100 µM (inactive)
[28]
  GI50: 89.3 µM (inactive)
[29]
  GI50: > 100 µM (inactive)
[30]
  GI50: 37.1 µM (inactive)
[31]
  GI50: 33.4 µM (inactive)
[32]
  GI50: > 100 µM (inactive)
[33]
  GI50: > 100 µM (inactive)
[34]
  GI50: > 100 µM (inactive)
[35]
  GI50: > 100 µM (inactive)
[36]
  GI50: > 100 µM (inactive)
[37]
  GI50: > 100 µM (inactive)
[38]
  GI50: 40.6 µM (inactive)
[39]
  GI50: > 100 µM (inactive)
[40]
  GI50: 23.4 µM (inactive)
[41]
  GI50: 57.1 µM (inactive)
[42]
  GI50: > 100 µM (inactive)
[43]
  GI50: 97.5 µM (inactive)
[44]
  GI50: 53.3 µM (inactive)
[45]
  GI50: > 100 µM (inactive)
[46]
  GI50: > 100 µM (inactive)
[47]
  GI50: 14.7 µM (inactive)
[48]
  GI50: > 100 µM (inactive)
[49]
  GI50: > 100 µM (inactive)
[50]
  GI50: > 100 µM (inactive)
[51]
  GI50: > 100 µM (inactive)
[52]
  GI50: 91.4 µM (inactive)
[53]
  GI50: > 100 µM (inactive)
[54]
  GI50: > 100 µM (inactive)
[55]
  GI50: 33.9 µM (inactive)
[56]
  GI50: > 100 µM (inactive)

## CC(=O)O[C@H]1C(=O)[C@@]2(C)C(C(OC(=O)c3ccccc3)[C@]3(O)CC(OC(=O)C(O)C(NC(=O)c4ccccc4)c4ccc(F)cc4)C(C)=C1C3(C)C)[C@]1(OC(C)=O)CO[C@@H]1C[C@@H]2O (some centres undefined)
[1]
  GI50: < 0.001 µM (active)
[2]
  GI50: < 0.001 µM (active)
[3]
  GI50: 0.0296 µM (active)
[4]
  GI50: 0.00164 µM (active)
[5]
  GI50: 0.0129 µM
[57]
  GI50: 0.0014 µM (active)
[6]
  GI50: 0.00138 µM (active)
[7]
  GI50: 0.00124 µM (active)
[8]
  GI50: 0.00104 µM (active)
[9]
  GI50: 0.00152 µM (active)
[10]
  GI50: 1.17 µM (inactive)
[58]
  GI50: 0.00129 µM (active)
[12]
  GI50: 0.00375 µM (active)
[13]
  GI50: 0.00126 µM (active)
[14]
  GI50: 0.0139 µM (active)
[15]
  GI50: 0.00966 µM (active)
[16]
  GI50: 0.00371 µM (active)
[17]
  GI50: 0.00168 µM (active)
[18]
  GI50: 0.00164 µM (active)
[19]
  GI50: 0.00152 µM (active)
[21]
  GI50: < 0.001 µM (active)
[22]
  GI50: 0.00181 µM (active)
[23]
  GI50: 0.00365 µM (active)
[24]
  GI50: < 0.001 µM (active)
[25]
  GI50: 0.0942 µM (active)
[26]
  GI50: 0.166 µM (active)
[27]
  GI50: 0.00359 µM (active)
[28]
  GI50: 0.00133 µM (active)
[29]
  GI50: < 0.001 µM (active)
[30]
  GI50: < 0.001 µM (active)
[31]
  GI50: 0.0011 µM (active)
[32]
  GI50: 0.00141 µM (active)
[33]
  GI50: < 0.001 µM (active)
[34]
  GI50: < 0.001 µM (active)
[35]
  GI50: < 0.001 µM (active)
[36]
  GI50: < 0.001 µM (active)
[37]
  GI50: < 0.001 µM (active)
[38]
  GI50: < 0.001 µM (active)
[39]
  GI50: 0.00857 µM (active)
[40]
  GI50: 0.00401 µM (active)
[41]
  GI50: < 0.001 µM (active)
[42]
  GI50: < 0.001 µM (active)
[59]
  GI50: < 0.001 µM (active)
[43]
  GI50: < 0.001 µM (active)
[44]
  GI50: 3.43 µM (inactive)
[45]
  GI50: < 0.001 µM (active)
[47]
  GI50: 0.00233 µM (active)
[48]
  GI50: < 0.001 µM (active)
[49]
  GI50: 0.00158 µM (active)
[50]
  GI50: < 0.001 µM (active)
[51]
  GI50: 0.00124 µM (active)
[52]
  GI50: < 0.001 µM (active)
[53]
  GI50: 0.0904 µM (active)
[54]
  GI50: < 0.001 µM (active)
[55]
  GI50: 0.00252 µM (active)
[56]
  GI50: 0.647 µM (active)

## O=C(O)/C=C/C=C/c1ccc2c(c1)OCO2 [PIPERIC ACID]
[1]
  GI50: > 100 µM (inactive)
[2]
  GI50: > 100 µM (inactive)
[3]
  GI50: > 100 µM (inactive)
[4]
  GI50: > 100 µM (inactive)
[5]
  GI50: > 100 µM
[6]
  GI50: > 100 µM (inactive)
[7]
  GI50: > 100 µM (inactive)
[8]
  GI50: > 100 µM (inactive)
[9]
  GI50: > 100 µM (inactive)
[10]
  GI50: > 100 µM (inactive)
[11]
  GI50: > 100 µM (inactive)
[58]
  GI50: > 100 µM (inactive)
[12]
  GI50: 94.4 µM (inactive)
[13]
  GI50: > 100 µM (inactive)
[14]
  GI50: > 100 µM (inactive)
[15]
  GI50: > 100 µM (inactive)
[16]
  GI50: > 100 µM (inactive)
[17]
  GI50: 36.6 µM (inactive)
[18]
  GI50: > 100 µM (inactive)
[19]
  GI50: > 100 µM (inactive)
[20]
  GI50: > 100 µM (inactive)
[21]
  GI50: > 100 µM (inactive)
[22]
  GI50: > 100 µM (inactive)
[23]
  GI50: > 100 µM (inactive)
[24]
  GI50: > 100 µM (inactive)
[25]
  GI50: > 100 µM (inactive)
[26]
  GI50: > 100 µM (inactive)
[27]
  GI50: > 100 µM (inactive)
[28]
  GI50: > 100 µM (inactive)
[29]
  GI50: > 100 µM (inactive)
[30]
  GI50: > 100 µM (inactive)
[31]
  GI50: > 100 µM (inactive)
[32]
  GI50: > 100 µM (inactive)
[33]
  GI50: > 100 µM (inactive)
[34]
  GI50: > 100 µM (inactive)
[35]
  GI50: > 100 µM (inactive)
[36]
  GI50: > 100 µM (inactive)
[37]
  GI50: > 100 µM (inactive)
[38]
  GI50: > 100 µM (inactive)
[39]
  GI50: > 100 µM (inactive)
[40]
  GI50: > 100 µM (inactive)
[41]
  GI50: 82.6 µM (inactive)
[42]
  GI50: > 100 µM (inactive)
[59]
  GI50: > 100 µM (inactive)
[43]
  GI50: > 100 µM (inactive)
[44]
  GI50: > 100 µM (inactive)
[45]
  GI50: > 100 µM (inactive)
[46]
  GI50: > 100 µM (inactive)
[47]
  GI50: > 100 µM (inactive)
[48]
  GI50: > 100 µM (inactive)
[49]
  GI50: > 100 µM (inactive)
[50]
  GI50: > 100 µM (inactive)
[52]
  GI50: > 100 µM (inactive)
[53]
  GI50: > 100 µM (inactive)
[54]
  GI50: > 100 µM (inactive)
[55]
  GI50: > 100 µM (inactive)
[56]
  GI50: > 100 µM (inactive)
